According to article PMC4736448, “Optical Control of Insulin Secretion Using an Incretin Switch” (Angewandte Chemie (International Ed. in English), 2015):
Starred links: 1 amine or outer side, 2 acyl side, 3 side chain; linkers in the order of their positions; H or OH if unused. Non-standard residues stand in square brackets, D forms with d. Residues, ends and D or L forms follow the SMILES beside them. X1 = O=C(Cc1cccc(/N=N/c2cccc(CN[*:1])c2)c1)[*:2]; X2 = O=C(Cc1cccc(/N=N\c2cccc(CN[*:1])c2)c1)[*:2]

Tests used:
MIN6 beta cells [1] = format: cell-based; conditions: for signaling pathways engaged (Ca2+ rises with pathway antagonists): MIN6 beta cells, 150 nM, >8 mM glucose, antagonists of Epac2, L-type Ca2+ channels, KATP, IP3R, PKA, n=8 repeats
Procedure: (§1) All procedures involving primary tissue were regulated by the Home Office […]
MIN6 cells (a kind gift from Dr Jun-ichi Miyazaki, Osaka University) […]
HEPES, 0.0005% β-mercaptoethanol 100 U/mL penicillin and 100 µg/mL […]
Multicellular Ca2+ imaging was performed using fluo2 and a Nipkow spinning disk confocal microscope, as detailed.[3] […]
through a 10/0.3 NA objective (EC Plan-Neofluar, Zeiss) using a solid-state laser (Cobalt), and emitted signals captured from λ = 500-550 nm using a Hammamatsu ImageEM EM-CCD camera. Photoswitching was performed using either a λ = 440 nm laser or the epifluorescent port of the microscope configured with a λ = 350 ± 20 nm band-pass filter. Throughout, HEPES-bicarbonate buffer was used, containing in mM: 120 NaCl, 4.8 KCl, 24 NaHCO3, 0.5 Na2HPO4, 5 […]
HEPES, 2.5 CaCl2 and 1.2 MgCl2. […]
High-throughput (HTS) Ca2+ assays were performed using the DiscoverX
HitHunter No Wash PLUS assay. Treatments were automatically delivered at 37 °C using a BMG Labtech NOVOstar platereader and fluorescence intensity read […]
over 30-45 s. […] For all […]
transilluminator to induce cis-isomerization, or kept in the dark to maintain the […]
trans-isomer. […]
(§2) Non-multifactorial comparisons were made using Student’s t-test. Multifactorial comparisons were made using either one- or two-way ANOVA, or the Kruskal-Wallis test, followed by pairwise comparisons using Bonferonni’s or Dunn’s tests.
(§3) Log-transformed concentration-response curves were fitted using non-linear regression and the Hill equation. All analyses were conducted using Graphpad Prism (Graphpad Software) and IgorPro, and results deemed significant at […]

islets = experiment: Cytotoxicity (dead:live and TUNEL) in islets; format: cell-based, mouse; conditions: 11 mM glucose-only; n=8-9 islets
Procedure: (§4) All procedures involving primary tissue were regulated by the Home Office according to the Animals (Scientific Procedures) Act 1986 of the United Kingdom […]
(§5) Isolation of rodent islets
(§6) Islets were isolated from 8-12 week old female C57BL6 mice, as previously detailed,[2] and maintained in Roswell Park Memorial Institute (RPMI) medium supplemented with 10% foetal calf serum, 100 U/mL penicillin and 100 µg/mL […]
Cytotoxicity and apoptosis assays
(§7) (live) and 2.5 µM of propidium iodide (dead), and […]/emission detected at λ = 491/525 nm and λ = 561/620 nm, respectively. The area of dead:live cells was calculated as a ratio. Apoptosis was assessed using a DeadEnd Fluorimetric TUNEL System staining kit (Promega).[3] The apoptotic cell mass was calculated as a fraction area versus the total cell mass. […]

[2] = cis-trans photoisomerization by UV/Vis spectroscopy; format: physicochemical; conditions: UV 330 nm (trans→cis), blue 440 nm (cis→trans), listed as names the isomer
From the text: Switching kinetics in response to blue (λ=440 nm; cis→trans) and UV (λ=330 nm; trans→cis) light were robust and fast, with no evidence of degradation or bleaching (Figure 2 b; see Figure S2 and Table S2 in the Supporting Information).

MIN6 beta cells [3] = experiment: Apoptosis induced by glucolipotoxicity in MIN6 beta cells (cleaved caspase 3); format: cell-based; conditions: 500 nM, 24 h, 33 mM glucose + 0.5 mM palmitate, n=8 repeats
Procedure: MIN6 cells (a kind gift from Dr Jun-ichi Miyazaki, Osaka University) were cultured in DMEM supplemented with 15% FBS, 10 mM glutamine, 20 mM HEPES, 0.0005% β-mercaptoethanol 100 U/mL penicillin and 100 µg/mL […]
Apoptosis was assessed using a DeadEnd Fluorimetric
TUNEL System staining kit (Promega).[3] The apoptotic cell mass was calculated as a fraction area versus the total cell mass. To investigate the pro-survival […]
(§8) mixture (33 mM glucose + 0.5 mM palmitate) in the presence or absence of compound. Apoptosis was subsequently determined using specific fluorescent immunostaining and a rabbit polyclonal antibody against cleaved caspase 3 (Cell Signaling Technology # 9661; 1:400), before analysis as above. […]

mouse islets = experiment: Glucose-stimulated insulin secretion from isolated islets; format: cell-based; conditions: 150 nM, 8 mM glucose, n=12 animals; for augmentation of glucose-stimulated insulin secretion: mouse islets, 30 min, dark (trans) or 350 nm light (cis)
Procedure: as §1, §5, §6
transilluminator to induce cis-isomerization, or kept in the dark to maintain the trans-isomer. In addition, for HTS Ca2+ assays, λ = 340 ± 10 nm or λ = […] was delivered between acquisitions using the platereader’s inbuilt […]
Batches of six to eight islets were incubated for 30 min in Krebs-HEPES-bicarbonate solution containing in mM: 130 NaCl, 3.6 KCl, 1.5 CaCl2, 0.5 MgSO4, 0.5 NaH2PO4, 2 NaHCO3, 10 HEPES and 0.1% (wt/vol) bovine serum albumin, pH 7.4.[2] Treatments were applied as indicated and photoswitching performed at λ = 340 ± 10 nm using a BMG Fluostar Optima platereader, as above. Insulin concentrations in the supernatant were measured using a Cisbio HTRF assay according to the low-range (sensitive) protocol.
as §2, §3

[4] = tested on: pancreatic beta cells within intact islets; experiment: Multicellular Ca2+ imaging in intact islets of Langerhans; format: cell-based, mouse; conditions: for effect on cytosolic Ca2+ levels / multicellular Ca2+ spiking in islets / Ca2+ rises / beta-cell activity at non-permissive (low) glucose: 150 nM; for effect on cytosolic Ca2+ levels / multicellular Ca2+ spiking in islets: permissive (>8 mM) glucose, blue 440 nm (trans), UV 350 nm (cis); for Ca2+ rises / beta-cell activity at non-permissive (low) glucose: G3, 3 mM glucose, n=5 recordings; for effect of GLP-1R blockade on trans-LirAzo-stimulated Ca2+ oscillations: Exendin 9-39 150 nM, n=9 recordings
Procedure: as §4, §5, §6
Multicellular Ca2+ imaging was performed using fluo2 and a Nipkow spinning disk confocal microscope, as detailed.[3] Briefly, pulsed λ = 491 nm light was delivered through a 10/0.3 NA objective (EC Plan-Neofluar, Zeiss) using a solid-state laser (Cobalt), and emitted signals captured from λ = 500-550 nm using a Hammamatsu ImageEM EM-CCD camera. Photoswitching was performed using either a λ = 440 nm laser or the epifluorescent port of the microscope configured with a λ = 350 ± 20 nm band-pass filter. Throughout, HEPES-bicarbonate buffer was used, containing in mM: 120 NaCl, 4.8 KCl, 24 NaHCO3, 0.5 Na2HPO4, 5 HEPES, 2.5 CaCl2 and 1.2 MgCl2. Compounds and D-glucose were added as […]

MIN6 beta cells [5] = experiment: cAMP responses in MIN6 beta cells (Cisbio HTRF cAMP assay); format: cell-based; conditions: permissive (>8 mM) glucose, n=7 repeats
Procedure: as §4, §5, §6
Chinese Hamster Ovary (CHO) cells stably expressing the GLP-1R were cultured in Dulbecco's Modified Eagle's Medium (DMEM) supplemented with 10% FBS, 1 x non-essential amino acids, 25 mM HEPES, 100 U/mL penicillin and 100 µg/mL streptomycin. […]
as §7, §8
HitHunter No Wash PLUS assay. […] Absorbance/emission were detected at λ = 488/525 nm. […]

CC[C@H](C)[C@H](NC(=O)[C@H](Cc1ccccc1)NC(=O)[C@H](CCC(=O)O)NC(=O)[C@H](CCCCN)NC(=O)[C@H](C)NC(=O)[C@H](C)NC(=O)Cc1cccc(/N=N/c2cccc(CNC(=O)[C@H](CCC(=O)O)NC(=O)[C@H](CC(C)C)NC(=O)[C@H](Cc3ccc(O)cc3)NC(=O)[C@H](CO)NC(=O)[C@H](CO)NC(=O)[C@@H](NC(=O)[C@H](CC(=O)O)NC(=O)[C@H](CO)NC(=O)[C@@H](NC(=O)[C@H](Cc3ccccc3)NC(=O)[C@@H](NC(=O)CNC(=O)[C@H](CCC(=O)O)NC(=O)[C@H](C)NC(=O)[C@@H](N)Cc3c[nH]cn3)[C@@H](C)O)[C@@H](C)O)C(C)C)c2)c1)C(=O)N[C@@H](C)C(=O)N[C@@H](Cc1c[nH]c2ccccc12)C(=O)N[C@@H](CC(C)C)C(=O)N[C@H](C(=O)N[C@@H](CCCNC(=N)N)C(=O)NCC(=O)N[C@@H](CCCNC(=N)N)C(=O)NCC(=O)O)C(C)C [trans‐LirAzo] (H-HAEGTFTSDVSSYLE[X1]AAKEFIAWLVRGRG-OH)
signaling pathways engaged (Ca2+ rises with pathway antagonists) (MIN6 beta cells [1]): signaled via the cAMP binding partners Epac2 and PKA, as well as IP3 | islet cell apoptosis under normal conditions (TUNEL) (islets): do not induce | photoswitching kinetics τ1 [2]: 32.3 ± 1.6 s | photoswitching kinetics τ2 [2]: 7.5 ± 3.4 min | protection from apoptosis induced by glucolipotoxic insult (MIN6 beta cells [3]): more protective than cis‐LirAzo | protection from apoptosis induced by glucolipotoxic insult (MIN6 beta cells [3]; listed as trans isomer of LirAzo): significant protection | augmentation of glucose-stimulated insulin secretion (mouse islets): ca. 1.4 fold | effect on cytosolic Ca2+ levels / multicellular Ca2+ spiking in islets [4]: induced increases in the baseline amplitude and frequency of multicellular Ca^2+ spiking | Ca2+ rises / beta-cell activity at non-permissive (low) glucose [4]: unable to stimulate changes in beta‐cell activity | Ca2+ rises / beta-cell activity at non-permissive (low) glucose ([4]; listed as trans-LirAzo): unable

CC[C@H](C)[C@H](NC(=O)[C@H](Cc1ccccc1)NC(=O)[C@H](CCC(=O)O)NC(=O)[C@H](CCCCN)NC(=O)[C@H](C)NC(=O)[C@H](C)NC(=O)Cc1cccc(/N=N\c2cccc(CNC(=O)[C@H](CCC(=O)O)NC(=O)[C@H](CC(C)C)NC(=O)[C@H](Cc3ccc(O)cc3)NC(=O)[C@H](CO)NC(=O)[C@H](CO)NC(=O)[C@@H](NC(=O)[C@H](CC(=O)O)NC(=O)[C@H](CO)NC(=O)[C@@H](NC(=O)[C@H](Cc3ccccc3)NC(=O)[C@@H](NC(=O)CNC(=O)[C@H](CCC(=O)O)NC(=O)[C@H](C)NC(=O)[C@@H](N)Cc3c[nH]cn3)[C@@H](C)O)[C@@H](C)O)C(C)C)c2)c1)C(=O)N[C@@H](C)C(=O)N[C@@H](Cc1c[nH]c2ccccc12)C(=O)N[C@@H](CC(C)C)C(=O)N[C@H](C(=O)N[C@@H](CCCNC(=N)N)C(=O)NCC(=O)N[C@@H](CCCNC(=N)N)C(=O)NCC(=O)O)C(C)C [cis‐LirAzo] (H-HAEGTFTSDVSSYLE[X2]AAKEFIAWLVRGRG-OH)
cAMP concentration response in MIN6 beta cells, cis versus trans (MIN6 beta cells [5]): significantly left‐shifted, with a higher maximal response | Ca2+ fluxes versus control injection (high glucose alone) (MIN6 beta cells [1]; Figure S6): only just above those observed following control injection | signaling pathways engaged (Ca2+ rises with pathway antagonists) (MIN6 beta cells [1]): signaled via the cAMP binding partners Epac2 and PKA, as well as IP3 | photoswitching kinetics τ1 [2]: 51.0 ± 2.4 s | photoswitching kinetics τ2 [2]: 11.1 ± 4.0 min | protection from apoptosis induced by glucolipotoxic insult (MIN6 beta cells [3]): Lira and trans‐LirAzo are more protective than cis‐LirAzo | potentiation of glucose-stimulated insulin secretion (versus G8) (mouse islets): potentiate | augmentation of glucose-stimulated insulin secretion (mouse islets): ca. 2.5 fold | effect on cytosolic Ca2+ levels / multicellular Ca2+ spiking in islets [4]: reduced

exendin 9–39 [reference compound]
effect of GLP-1R blockade on trans-LirAzo-stimulated Ca2+ oscillations [4]: abolished | effect of GLP-1R blockade on trans-LirAzo-stimulated Ca2+ oscillations ([4]; listed as Exendin 9-39): abolishes
